Measurements from patent publication US20220281848A1, “PYRAZOLE-SUBSTITUTED PYRROLIDINONES AS HERBICIDES” (FMC Corporation, priority 2019, published 2022).

Experiments:
Assay type in all cases: in vivo
Conditions in all cases: 19 to 21 days
corn (Zea mays) = assay: Test B preemergence, corn
Excerpt: (§1) Seeds of plant species selected from blackgrass (Alopecurus myosuroides), Italian ryegrass (Lolium multiflorum), wheat, winter (winter wheat, Triticum aestivum), corn (Zea mays), large (Lg) crabgrass (Digitaria sanguinalis), giant foxtail (Setaria faberi), johnsongrass (Sorghum halepense), ragweed (common ragweed, Ambrosia elatior), soybean (Glycine max), barnyardgrass (Echinochloa crus-galli), waterhemp (common waterhemp, Amaranthus rudis), palmer pigweed (Amaranthus palmeri), and surinam grass (Brachiaria decumbens), were planted into a silt loam soil and treated preemergence with test chemicals formulated in a non-phytotoxic solvent mixture which included a surfactant.
(§2) Treated plants and controls were maintained in a greenhouse for 19 to 21 days, after which time all species were compared to controls and visually evaluated. Plant response ratings, summarized in Table B, are based on a scale of 0 to 100 where 0 is no effect and 100 is complete control.

[1] = test system: palmer pigweed (Amaranthus palmeri); assay: Test B preemergence, palmer pigweed
Excerpt: as §1, §2

[2] = test system: large (Lg) crabgrass (Digitaria sanguinalis); assay: Test B preemergence, large crabgrass
Excerpt: as §1, §2

[3] = test system: E. Black Nightshade (Solanum ptycanthum); assay: Test C preemergence, E. Black Nightshade
Excerpt: Seeds of plant species selected from corn (Zea mays), soybean (Glycine max), velvetleaf (Abutilon theophrasti), palmer pigweed (Amaranthus palmeri), waterhemp (common waterhemp, Amaranthus rudis), surinam grass (Brachiaria decumbens), large (Lg) crabgrass (Digitaria sanguinalis), fall panicum (Panicum dichotomiflorum), giant foxtail (Setaria faberi), ragweed (common ragweed, Ambrosia elatior), barnyardgrass (Echinochloa crus-galli), E. Black Nightshade (Solanum ptycanthum), and horseweed (Conyza canadensis), were planted into a silt loam soil and treated preemergence with test chemicals formulated in a non-phytotoxic solvent mixture which included a surfactant.
Treated plants and controls were maintained in a greenhouse for 19 to 21 days, after which time all species were compared to controls and visually evaluated. Plant response ratings, summarized in Table C, are based on a scale of 0 to 100 where 0 is no effect and 100 is complete control.

## CN1C[C@H](c2cc(C(F)(F)F)n(C)n2)[C@@H](C(=O)Nc2cccc(F)c2F)C1=O [Compound 13, (3S,4R)—N-(2,3-difluorophenyl)-1-methyl-4-[1-methyl-5-(trifluoromethyl)-1H-pyrazol-3-yl]-2-oxo-3-pyrrolidinecarboxamide]
Corn (Zea mays); 16 g ai/ha Preemergence
  Plant response rating (0 no effect, 100 complete control) Corn: 3
Corn (Zea mays); 31 g ai/ha Preemergence
  Plant response rating (0 no effect, 100 complete control) Corn: 5
Corn (Zea mays); 62 g ai/ha Preemergence
  Plant response rating (0 no effect, 100 complete control) Corn: 13
Corn (Zea mays); 125 g ai/ha Preemergence
  Plant response rating (0 no effect, 100 complete control) Corn: 48
[1]; 16 g ai/ha Preemergence
  Plant response rating (0 no effect, 100 complete control) Pigweed, Palmer: 0
[1]; 31 g ai/ha Preemergence
  Plant response rating (0 no effect, 100 complete control) Pigweed, Palmer: 0
[1]; 62 g ai/ha Preemergence
  Plant response rating (0 no effect, 100 complete control) Pigweed, Palmer: 0
[1]; 125 g ai/ha Preemergence
  Plant response rating (0 no effect, 100 complete control) Pigweed, Palmer: 0
[2]; 16 g ai/ha Preemergence
  Plant response rating (0 no effect, 100 complete control) Crabgrass, Large: 100
[2]; 31 g ai/ha Preemergence
  Plant response rating (0 no effect, 100 complete control) Crabgrass, Large: 100
[2]; 62 g ai/ha Preemergence
  Plant response rating (0 no effect, 100 complete control) Crabgrass, Large: 100
[2]; 125 g ai/ha Preemergence
  Plant response rating (0 no effect, 100 complete control) Crabgrass, Large: 100
[3]; 4 g ai/ha Preemergence
  Plant response rating (0 no effect, 100 complete control) Nightshade: 0
[3]; 8 g ai/ha Preemergence
  Plant response rating (0 no effect, 100 complete control) Nightshade: 0
[3]; 16 g ai/ha Preemergence
  Plant response rating (0 no effect, 100 complete control) Nightshade: 0
[3]; 31 g ai/ha Preemergence
  Plant response rating (0 no effect, 100 complete control) Nightshade: 0
[3]; 62 g ai/ha Preemergence
  Plant response rating (0 no effect, 100 complete control) Nightshade: 0
[3]; 125 g ai/ha Preemergence
  Plant response rating (0 no effect, 100 complete control) Nightshade: 63
